Experimental data: patent US7781437B2, “Substituted heterocyclic compounds with CXCR3 antagonist activity” (Schering Corporation, priority 2005, dated 2010)
pKi: −log10 of the molar value. Where two headings read alike, the source gives them in different places.

Target: T1, Human CXCR3 (N-delta 4) (Homo sapiens, UniProt P49682)
T1 construct: CD8 leader (N); Flag tag; expressed in transfected cells; membrane preparation
T1 sequence (P49682 5-368 limits assumed): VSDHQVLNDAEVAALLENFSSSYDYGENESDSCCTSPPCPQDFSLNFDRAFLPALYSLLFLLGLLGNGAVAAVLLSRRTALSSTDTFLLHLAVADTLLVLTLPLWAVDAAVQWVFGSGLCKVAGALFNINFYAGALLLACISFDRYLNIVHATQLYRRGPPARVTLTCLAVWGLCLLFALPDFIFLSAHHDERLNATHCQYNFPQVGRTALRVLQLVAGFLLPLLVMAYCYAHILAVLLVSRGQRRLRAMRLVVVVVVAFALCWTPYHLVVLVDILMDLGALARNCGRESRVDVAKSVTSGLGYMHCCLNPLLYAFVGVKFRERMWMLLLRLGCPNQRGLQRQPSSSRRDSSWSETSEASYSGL
Test: Human CXCR3 (N-delta 4) Scintillation Proximity Assay (SPA), [125I] IP-10 binding to Ba/F3-hCXCR3 (N-delta 4) membranes
Conditions: [125I] IP-10 displacement
Source text: The inventive compounds can readily be evaluated to determine activity at The CXCR3 receptors by known methods, such as, for example, Development of Human CXCR3 (N-delta 4) Binding Assay.
Cloning and Expression of Human CXCR3 (N-delta 4):
The DNA encoding human CXCR3 was cloned by PCR using human genomic DNA (Promega, Madison, Wis.) as a template. The PCR primers were designed based on the published sequence of human orphan receptor GPR9 (1) with incorporated restriction sites, a Kozak consensus sequence, CD8 leader and Flag tag. The PCR product was subcloned into the mammalian expression vector pME18Sneo, a derivative of the SR-alpha expression vector (designated as pME18Sneo-hCXCR3 (N-delta 4).
IL-3-dependent mouse pro-B cells Ba/F3 were transfected by electroporation in 0.4 ml Dulbecco's PBS containing 4×10^6 cells with 20 μg of pME18Sneo-hCXCR3 (N-delta 4) plasmid DNA. Cells were pulsed at 400 Volts, 100 OHMs, 960 μFd. The transfected cells were under selection with 1 mg/ml G418 (Life Technologies, Gaithersburg, Md.). G418-resistant Ba/F3 clones were screened for CXCR3 expression by specific binding of [^125I] IP-10 (NEN Life Science Products, Boston, Mass.).
Preparation of Ba/F3-hCXCR3 (N-delta 4) membranes:
Ba/F3 cells expressing human CXCR3 (N-delta 4) were pelleted and resuspended in the lysis buffer containing 10 mM HEPES , pH 7.5 and Complete® protease inhibitors (1 tablet per 100 ml) (Boehringer Mannheim, Indianapolis, Ind.) at a cell density of 20×10^6 cells per ml. After 5 minutes incubation on ice, cells were transferred to 4639 cell disruption bomb (Parr Instrument, Moline, Ill.) and applied with 1,500 psi of nitrogen for 30 minutes on ice. Large cellular debris was removed by centrifugation at 1,000×g. Cell membrane in the supernatant was sedimented at 100,000×g. The membrane was resuspended in the lysis buffer supplemented with 10% sucrose and stored at −80° C. Total protein concentration of the membrane was determined by BCA method from Pierce (Rockford, Ill.).
Human CXCR3 (N-delta 4) Scintillation Proximitv Assay (SPA):
For each assay point, 2 μg of membrane was preincubated for 1 hr with 300 μg wheat germ agglutinin (WGA) coated SPA beads (Amersham, Arlington Heights, Ill.) in the binding buffer (50 mM HEPES, 1 mM CaCl2, 5 mM MgCl2, 125 mM NaCI, 0.002% NaN3, 1.0% BSA) at room temperature. The beads were spun down, washed once, resuspended in the binding buffer and transferred to a 96-well Isoplate (Wallac, Gaithersburg, Md.). 25 pM of [^125I] IP-10 with tested compounds in a series of titration were added to start the reaction. After 3 hr reaction at room temperature, the amount of [^125I] IP-10 bound to the SPA beads was determined with a Wallac 1450 Microbeta counter.
The Ki values for the various example compounds of the present invention are given in the afore-mentioned Table 1. From these values, it would be apparent to the skilled artisan that the compounds of the invention have excellent utility CXCR3 antagonists.

[1] = specific Ki values (Table 2), read-out: Ki

Row | Structure (SMILES) | pKi (read-out: Ki rating) | pKi [1]
1 | CC[C@H]1CN(c2c(Cl)nc(-c3nnc(N)o3)c(=O)n2C)CCN1C1CCN(Cc2ccc(Cl)cc2)CC1 [Compound Number 1] | > 7.60 | 8.72
2 | CC[C@H]1CN(c2c(Cl)nc(-c3nnc(N)o3)c(=O)n2C)CCN1C1CCN(C(=O)c2ccc(Cl)nc2N)CC1 [Compound Number 3] | > 7.60 | 8.12
3 | CC[C@H]1CN(c2c(Cl)nc(C(N)=O)c(=O)n2C)CCN1C1CCN(Cc2ccc(Cl)cc2F)CC1 [Compound Number 4] | > 7.60 | 8.08
4 | CC[C@H]1CN(c2c(C)nc(C(N)=O)c(=O)n2C)CCN1C1CCN(Cc2ccc(Cl)cc2F)CC1 [Compound Number 7] | 7.00 to 7.60 | 
5 | CC[C@H]1CN(c2c(Cl)nc(C(=O)OC)c(=O)n2C)CCN1C1CCN(Cc2ccc(Cl)cc2F)CC1 [Compound Number 8] | 7.00 to 7.60 | 
6 | CC[C@H]1CN(c2c(Cl)nc(-c3nnc(N)o3)c(=O)n2C)CCN1C1CCN(Cc2cc(F)c(Cl)cc2F)CC1 [Compound Number 9] | 7.00 to 7.60 | 
7 | CC[C@H]1CN(c2c(Cl)nc(C(N)=O)c(=O)n2C)CCN1C1CCN(Cc2ccc(Cl)nc2N)CC1 [Compound Number 10] | 7.00 to 7.60 | 
8 | CC[C@H]1CN(c2cnc(C(N)=O)c(=O)n2C)CCN1C1CCN(Cc2ccc(Cl)nc2N)CC1 [Compound Number 12] | < 7.00 | 

Other lines, results leading:

Row | pKi (read-out: Ki rating) | pKi [1] | Structure (SMILES)
9 | > 7.60 | 8.59 | CCNc1nnc(-c2nc(C)c(N3CCN(C4CCN(C(=O)c5ccc(Cl)nc5N)CC4)[C@@H](CC)C3)n(C)c2=O)o1 [Compound Number 2]
10 | > 7.60 | 8.72 | CC[C@H]1CN(c2c(Cl)nc(-c3nnc(N)o3)c(=O)n2C)CCN1C1CCN(Cc2ccc(Cl)nc2)CC1 [Compound Number 5]
11 | 7.00 to 7.60 |  | CC[C@H]1CN(c2c(Cl)nc(-c3nnc(N)o3)c(=O)n2C)CCN1C1CCN(C(=O)c2ccc(Cl)cc2)CC1 [Compound Number 6]
12 | 7.00 to 7.60 |  | CC[C@H]1CN(c2c(Cl)nc(-c3nnc(N)o3)c(=O)n2C)CCN1C1CCN(Cc2cc(F)c(F)cc2Cl)CC1 [Compound Number 11]
13 | < 7.00 |  | CC[C@H]1CN(c2nc(O)c(-c3nnc(N)o3)nc2Cl)CCN1C1CCN(Cc2ccc(Cl)cc2)CC1 [Compound Number 13]
